Test results taken from a melting point compilation (Tetko et al.; mined from patent text by program, amines drawn as free bases though some values may be those of a salt).

Row | SMILES | melting point
1 | CCNC(=O)c1cc(N)c(N)cc1OC | 65 to 67 °C
2 | Nc1ccccc1OCCCCCN1CCC(OC(c2ccccc2)c2ccccc2)CC1 | 80 to 81 °C
3 | COC(=O)CC1=CN=C(SC)NC1(C)O (stereo unspecified) | 200 °C
4 | O=C(CC(=O)C(F)(F)Cl)c1ccc(Cl)cc1 | 50 to 51 °C
5 | CCCCCCCCCCC=C1SC(=S)N(CC(=O)O)C1=O | 61 to 63 °C
6 | C=C1CC2C(CCC3(C)C(OC(C)=O)CCC23)C2(C)CCC(=O)C=C12 (stereo unspecified) | 138 to 140 °C
7 | O=C(Nc1cc(Cl)c(Cl)c(Cl)c1)c1cc(Br)ccc1O | 297 to 299 °C
8 | CS(=O)(=O)CCOS(C)(=O)=O | 55 to 57 °C
9 | CCCCC(=O)NNC(=O)c1ccncc1 | 162 °C
10 | O=c1ccc2ccc(OCCCCl)cc2o1 | 100 to 102 °C
11 | CCC(CC(=O)NC(=O)OC(C)(C)C)Nc1ccc(C)cc1 (stereo unspecified) | 96 to 97 °C
12 | COC(=O)[C@H]1CC[C@H](N2CCN(c3ccc(C4(C)CCN(C(=O)C(F)(F)F)CC4)cc3)C2=O)CC1 | 158 to 161 °C
13 | CC(C)Cc1ccc(CCc2cc3c(s2)NC(=O)CN=C3c2ccccc2Cl)cc1 | 179 to 181 °C
14 | Cc1ccc(-c2nc(Sc3ccc(Cl)cc3)cc(N3CCN(C)CC3)n2)cc1 | 104 to 105 °C
15 | O[C@@H]1CN(C2CCCCC2)C[C@@H]1NCc1ccccc1 (relative stereo) | 108 to 110 °C
16 | O=C(c1ccc(Cl)cc1)C1(n2cncn2)CC1 | 78 °C
17 | CCNC(=O)c1c(Cl)ccc(Br)c1[Si](C)(C)C | 155 to 157 °C
18 | CC(=O)NC(CSC(=O)C(C)C)C(=O)NCCSC(C)=O (stereo unspecified) | 116 to 118 °C
19 | CCOC(=O)c1cc(OC)c(C)cc1N | 60 to 62 °C
20 | O=C(O)CCSCCCCCCCCCCCCF | 59 °C
21 | CC12CCC3c4ccc(O)cc4CC(CCCCCO)C3C1C=CC2=O (stereo unspecified) | 194 to 196 °C
22 | CCOc1ccc(C23CNCC2C3)cc1 (stereo unspecified) | 48 to 49 °C

Row | SMILES | melting point
23 | CNC(=S)n1nc(Cc2ccccc2)nc1N | 173 to 175 °C
24 | FC(F)(F)COc1ccc(CCNc2ncnc3scnc23)cn1 | 109 to 112 °C
25 | CC(C)(C)c1cc(CC2SC(=S)NC2=O)cc(C(C)(C)C)c1O (stereo unspecified) | 178 to 179 °C
26 | COc1cc(-c2ccc(O)c(C3(C)CCCCC3)c2)cc(CC2SC(N3CCOCC3)=NC2=O)c1OC (stereo unspecified) | 210 to 213 °C
27 | CC(C)(C)CC(=O)NC[C@H]1CN(c2ccc(N3CCC(=CC#N)CC3)c(F)c2)C(=O)O1 | 210 to 212 °C
28 | N#Cc1c(C(F)(F)F)[nH]c2cc(Cl)c(Cl)cc12 | > 260 °C
29 | CC(C)(C)OC(=O)N1CC2CC(CN(CCCOc3ccc(C#N)cc3O)C2)C1 | 127 to 130 °C
30 | CS(=O)(=O)c1ccc2c(c1)C(=O)CC2 | 155 °C
31 | O=C1OC(O)(C(F)(F)F)c2cccc(O)c21 (stereo unspecified) | 128 to 129 °C
32 | CCc1nc2c(C)cc(C)nc2n1Cc1ccc(C(Cc2nnn[nH]2)c2ccc(OC)cc2)cc1 (stereo unspecified) | 96 to 99 °C
33 | CC(=O)OCc1nc(C(CN(C(C)=O)C(C)(C)C)OC(C)=O)ccc1OC(C)=O (stereo unspecified) | 60 to 64 °C
34 | Cc1cc2c(cc1O)C(C)(C)CC1(CC(C)(C)c3cc(OCCCn4cccn4)c(C)cc3O1)O2 (stereo unspecified) | 239 to 241 °C
35 | CCN(CC)C(=O)c1cncc(OC2SCC(O)C(O)C2O)c1 (stereo unspecified) | 143 °C
36 | CCOP(=O)(CCN1CCNc2c1c(=O)c2=O)OCC | 115 to 116 °C
37 | Fc1ccc(-c2nn3c(c2-c2ccncc2)NCCC3)cc1 | 207 to 209 °C
38 | CS(=O)(=O)c1cc(C(=O)O)cc(N=Cc2ccco2)c1Cl | 221 °C
39 | CCN1CC2OC(C3OCCO3)(C1)c1ccccc12 (stereo unspecified) | 107 to 108 °C
40 | CC12CCC3=C(CCc4cc(O)ccc43)C1CCC2=O (stereo unspecified) | 225 to 227 °C
41 | CCCCCCCCOc1ccc(-c2ccc(C(C)OC(=O)CCC)cc2)cc1 (single isomer, unassigned; (+)) | 56.9 °C
42 | CCCCc1ccc2nc(Cl)cn2n1 | 61 to 63 °C
43 | OCCCc1cnoc1-c1ccc(Cl)cc1 | 58 to 59 °C
44 | CC(O)c1ccc(Cl)c(S(N)(=O)=O)c1 (stereo unspecified) | 144 to 146 °C

Other lines, results leading:

Row | melting point | SMILES
45 | 140 to 142 °C | COC(=O)C1=C(C)Nc2ccccc2SC1c1cccc([N+](=O)[O-])c1 (stereo unspecified)
46 | 126 to 127 °C | COc1ccc(CCC(=O)c2ccc(O)cc2)c(OC)c1
47 | 107 to 109 °C | COC(=O)[C@@H]1[C@H](/C=C/c2ccccc2)N1S(=O)c1ccc(C)cc1 (stereo partly specified)
48 | 98 to 99 °C | CC(C)(C)OC(=O)N[C@@H](C=O)Cc1ccc(OCc2ccccc2)cc1
49 | 73 to 74 °C | COc1nncc(-c2ccccc2)n1
50 | 114 to 115 °C | O=C(CCC(=O)N1CCC[C@H]1C(=O)O)[C@H](Cc1ccccc1)OCc1ccccc1
51 | 192 °C | CCC1(C)C(=O)c2c(cc(OCC(=O)O)c(Cl)c2Cl)C1c1ccccc1 (stereo unspecified)
52 | 146 to 147 °C | COc1ccc(Cn2c(=O)c3cc(Cl)ccc3n(CCCCBr)c2=O)cc1
53 | 119 to 121 °C | O=C(NC1CCc2ccccc2CC1=O)OCc1ccccc1 (stereo unspecified)
54 | 152 to 156 °C | COc1ccccc1-c1ccc2c(c1)CC[C@H]1N(C)C(=O)CC[C@]21C
55 | 188 to 190 °C | Cn1c(CN2CC=C(/C=C/c3ccccc3)CC2)nc2ccccc21
56 | 272 to 275 °C | O=C(Nc1ccc(C(F)(F)F)cc1)c1ccccc1SSc1ccccc1C(=O)Nc1ccc(C(F)(F)F)cc1
57 | 96 to 99 °C | CC(C)(C)C(NC(=O)OCc1ccccc1)C(=O)O (stereo unspecified)
58 | 155 to 156 °C | Cc1cc(C)cc(Sc2cccc([N+](=O)[O-])c2C#N)c1
59 | 115 to 117 °C | CC(C)(N)COc1ccc(O)c(C(N)=O)c1
60 | 74 °C | COc1ccc(C=CC(C)=O)cc1
61 | 192 to 193 °C | O=C1C=C(Oc2ccc(-c3ccccc3)cc2)C(O)O1 (stereo unspecified)
62 | 134 to 135 °C | COc1ccc(CSc2nnc(-c3ccc4ncsc4c3)o2)cc1
63 | 243 to 244 °C | CCOc1c(Nc2ccc3[nH]cnc3c2)c(=O)c1=O

Row | melting point | SMILES
64 | 217 to 219 °C | Cc1cc(Nc2c(C#N)cnc3cc(-c4csc(CN5CCOCC5)c4)ccc23)ccc1OCc1ccccn1
65 | 210 °C | N=c1sc2cc(OC(F)(F)F)ccc2n1CCS(=O)c1ccccc1 (racemic)
66 | 233 to 234 °C | O=C1Nc2ccccc2Nc2cscc21
67 | 165 to 167 °C | COc1ccc(-c2coc(C#N)cc2=O)cc1
68 | 192 to 193 °C | c1ccc(Sc2c(CCc3nc4ccccc4o3)[nH]c3ccccc23)cc1
69 | 76 to 77.5 °C | COC(=O)COc1ccc(NC(=O)COCc2ccccc2)cc1
70 | 66 to 69 °C | CCC1(CCCN2CCc3sccc3C2)C(=O)Nc2ccc(Cl)cc21 (stereo unspecified)
71 | 99 to 101 °C | C(=NC(c1ccccc1)c1ccccc1)c1ccccc1
72 | 84 °C | CNC(=O)[C@@H]1C[C@@H](OC(C)(C)C)CN1S(=O)(=O)c1ccc(Cl)c(COc2cccc3c(-n4ccnc4)cc(C)nc23)c1Cl
73 | 159 to 163 °C | O=C(O)c1ccc(-c2c3ccccc3nn2Cc2ccccc2)cc1
74 | 252 to 253 °C | COc1cc(O)c2c(=O)c(OC)c(-c3ccc(O)cc3)oc2c1
75 | 290 to 291 °C | O=C1c2ccc([N+](=O)[O-])c3c([N+](=O)[O-])ccc(c23)C(=O)N1O
76 | 164 to 165 °C | O=C(Nc1ccc(C(=O)N2C[C@@H]3C[C@H](O)CN3c3ccccc32)cc1)c1ccccc1-c1ccccc1
77 | 128 to 129 °C | COC(=O)NC(=O)CC1=C(Cc2ccc3c(Br)cccc3c2)C(=O)CCC1
78 | 199 to 201 °C | CC(=O)N(C)Cc1cc2c(-c3ccccc3)c(CC(=O)Nc3ccc(Cl)cc3C(F)(F)F)c(=O)oc2cc1Cl
79 | 153 to 154 °C | COc1ccccc1N1CCN(C(=O)Nc2cc(C(C)=O)c(C)nc2OC)CC1
80 | 233 to 235 °C | CC(C)c1ccc(-c2ccc(-c3cccc(C(=O)O)c3)s2)cc1
81 | 141 °C | CCc1nn(C(=O)Oc2ccccc2)c(=O)n1C
82 | 154 to 156 °C | COc1cc([N+](=O)[O-])c(C(=O)c2ccccc2)cc1O

Row | melting point | SMILES
83 | 60 °C | O=C(OCc1c(F)c(F)nc(F)c1Cl)c1ccccc1
84 | 147 to 150 °C | Cc1cccc(C)c1CCC(CCc1c[nH]cn1)CCc1c(C)cccc1C
85 | 125 to 128 °C | CC1=C(C(=O)OCC2CCN(Cc3ccccc3)C2)C(c2cccc([N+](=O)[O-])c2)c2c(ccnc2OC(C)C)N1 (stereo unspecified)
86 | 112 to 114 °C | CC(=O)NCc1ccc(CN2CCN(c3ccc(F)cc3)CC2)cc1[N+](=O)[O-]
87 | 110 °C | CS(=O)(=O)c1cc(OC[C@@H](O)CN[C@H]2CC[C@H](c3ccc(C(=O)N4Cc5ccccc5C4)cc3)CC2)ccc1O
88 | 205 °C | Cn1c(C(=O)O)c(-c2ccc(F)cc2)c2ccsc2c1=O
89 | 96 to 97 °C | Cc1nc(N2CCN(Cc3ccccc3)C2=O)sc1C(=O)NCc1ccncc1
90 | 151 to 153 °C | Nc1ccc([N+](=O)[O-])cc1OCCc1cccc2ccccc12
91 | 65 to 67 °C | CN1C(=O)N(CC(COc2ccc(-c3ccc(C#N)cc3)cc2)N(O)C=O)C(=O)C1(C)C (stereo unspecified)
92 | 190 to 195 °C | CC(C)(C)OC(=O)c1ccc(C=Cc2cnc(N)c(C#N)c2)cc1
93 | 217 to 218 °C | COc1ccc(-n2c(-c3cc(-c4ccc(Cl)cc4)c(N4CCOCC4)s3)nc3ccccc3c2=O)cc1
94 | 232 °C | Cc1ccc(C(=O)Nc2cc(C(F)(F)F)ccn2)cc1/C=C/n1cnc2c(NC3CC3)ncnc21
95 | 173 to 175 °C | CC1=C(C(=O)OCCN(C)Cc2ccccc2)C(c2cccc3ncc(-c4ccc(C)cc4)cc23)C2=C(COC2=O)N1 (stereo unspecified)
96 | 197 to 198 °C | Nc1ccc(S(=O)(=O)Nc2ccc(S(N)(=O)=O)cc2)cc1Cl
97 | 205 to 206 °C | Nc1ncnc2c1c(-c1ccc(Oc3ccccc3)cc1)c(Br)n2C1CCOC1 (stereo unspecified)
98 | 96 to 98 °C | O=C(O)c1ccccc1C(=O)OC1CCN(c2cc(-c3ccccc3)nc(-c3ccccc3)n2)CC1
99 | 198 to 199 °C | COc1ccc(C2=NN(c3ccc(C(=O)O)cc3)C(=O)[C@H]3CC=CC[C@@H]23)cc1OC (relative stereo)
100 | 146 to 147 °C | O=C(NCC(=O)c1cccs1)c1ccccc1
101 | 125 to 126 °C | Cc1ccc(S(=O)(=O)N(c2ccc(C#N)cc2[N+](=O)[O-])C(C)C)cc1
